Data reported in patent US12588678B2, “Oxazoline compound, synthesis method therefor and application thereof” (NANKAI UNIVERSITY, priority 2019, dated 2026).

Columns and labels:
[1] = test system: Tetranychus cinnabarinus mite larvae; experiment: Larvicidal activity test, dipping method on bean seedling leaves; type: in vivo; conditions: for mortality at 10 µg/mL / mortality at 100 µg/mL / mortality at 200 µg/mL / mortality at 1 µg/mL / mortality at 0.01 µg/mL / mortality at 0.05 µg/mL / mortality at 0.1 µg/mL: Tetranychus cinnabarinus, 96 h, checked after 4 days; for mortality at 10 µg/mL: read-out: mortality of mite larvae (%), 10 mg/L; for mortality at 100 µg/mL: read-out: mortality of mite larvae (%), 100 mg/L; for mortality at 200 µg/mL: read-out: mortality of mite larvae (%), 200 mg/L; for mortality at 1 µg/mL: read-out: mortality of mite larvae (%), 1 mg/L; for acaricidal activity compared with etoxazole: Tetranychus cinnabarinus eggs and larvae, etoxazole as reference; for mortality at 0.01 µg/mL: read-out: mortality of mite larvae (%), 0.01 mg/L; for mortality at 0.05 µg/mL: read-out: mortality of mite larvae (%), 0.05 mg/L; for mortality at 0.1 µg/mL: read-out: mortality of mite larvae (%), 0.1 mg/L
Excerpt: (§1) The assay examples are used to illustrate the acaricidal activity against Tetranychus cinnabarinus (mortality of mite larvae and mortality of mite eggs) of the compounds having the structure represented by formula (I), and the results are shown in tables 1 to 9, where mortality of mite larvae % =(number of dead mite larvae applied/total number of mite larvae applied)×100, and mortality of mite eggs %= (number of dead mite eggs applied/total number of mite eggs applied)×100.
Tetranychus cinnabarinus bred indoors on bean seedlings was used as a test subject by the dipping method. Move adult mites onto the newly grown complete bean seedling leaves with two leaves, cut off the bean seedlings, place the bean seedlings in a greenhouse with illumination at 25° C. for laying eggs for 24 hours, then remove adult mites and keep mite eggs. And continuously culture in the greenhouse for 5 days until mite eggs hatch into mite larvae (ensuring that the number of the mites on each tested leaf is not less than 60).
Completely immerse the bean seedling leaves containing the mite larvae into the sample solution to be detected with Tween at the prepared concentration for 5-6 seconds by using tweezers, slightly throw off residual liquid, put the bean seedling leaves back to the culture cup, continuously culture for 4 days and check the result. One of the plants was immersed in a solution containing no sample to be tested and the remaining additives were identical to the sample solution as a blank control. Each compound was replicated three times.

[2] = test system: Tetranychus cinnabarinus mite eggs; experiment: Activity against mite eggs, dipping method on bean seedling leaves; type: in vivo; conditions: Tetranychus cinnabarinus, 96 h, checked after 4 days; for mortality at 10 µg/mL: read-out: mortality of mite eggs (%), 10 mg/L; for mortality at 100 µg/mL: read-out: mortality of mite eggs (%), 100 mg/L; for mortality at 200 µg/mL: read-out: mortality of mite eggs (%), 200 mg/L; for mortality at 1 µg/mL: read-out: mortality of mite eggs (%), 1 mg/L; for mortality at 0.01 µg/mL: read-out: mortality of mite eggs (%), 0.01 mg/L; for mortality at 0.05 µg/mL: read-out: mortality of mite eggs (%), 0.05 mg/L; for mortality at 0.1 µg/mL: read-out: mortality of mite eggs (%), 0.1 mg/L
Excerpt: as §1
Tetranychus cinnabarinus bred indoors on bean seedlings was used as a test subject by the dipping method. Move female adult mites onto the newly grown complete bean seedling leaves with two leaves, cut off the bean seedlings, place the bean seedlings in a greenhouse with illumination at 25° C. for laying eggs for 24 hours, then remove adult mites and keep mite eggs. After continuously culturing in the greenhouse for one day, completely soak the bean seedling leaves containing the acarid eggs into the prepared sample solution to be tested for 5-6 seconds by using tweezers, slightly throw off residual liquid, put the bean seedling leaves back to the culture cup, continuously culture for 4 days and then check the result. One of the plants was immersed in a solution containing no sample to be tested and the remaining additives were identical to the sample solution as a blank control. Each compound was replicated three times.

Compound | mortality at 10 µg/mL [1] [%] | mortality at 100 µg/mL [1] [%] | mortality at 200 µg/mL [1] [%] | mortality at 10 µg/mL [2] [%] | mortality at 100 µg/mL [2] [%] | mortality at 200 µg/mL [2] [%] | mortality at 1 µg/mL [1] [%] | mortality at 1 µg/mL [2] [%] | acaricidal activity compared with etoxazole [1] | mortality at 0.01 µg/mL [1] [%] | mortality at 0.05 µg/mL [1] [%] | mortality at 0.1 µg/mL [1] [%] | mortality at 0.01 µg/mL [2] [%] | mortality at 0.05 µg/mL [2] [%] | mortality at 0.1 µg/mL [2] [%] | larvicidal activity, times that of etoxazole ([1]; relative to etoxazole) [times]
Fc1cccc(F)c1C1=NC(c2ccc(Cn3cccn3)cc2)CO1 (stereo not shown) [Compound R1-12] | 40 | 70 | 100 | 50 | 80 | 90 |  |  |  |  |  |  |  |  |  | 
Fc1cccc(F)c1C1=NC(c2ccc(CN3CCc4ccccc4C3)cc2)CO1 (stereo not shown) [Compound R1-13] | 70 | 88 | 100 | 90 | 100 | 100 | 40 | 60 |  |  |  |  |  |  |  | 
Fc1cccc(F)c1C1=NC(c2ccc(CN3CCc4ccccc43)cc2)CO1 (stereo not shown) [Compound R1-14] | 70 | 95 | 100 | 70 | 95 | 100 | 30 | 40 |  |  |  |  |  |  |  | 
Fc1cccc(F)c1C1=NC(c2ccc(Cn3ccc4ccccc43)cc2)CO1 (stereo not shown) [Compound R1-15] | 90 | 100 | 100 | 100 | 100 | 100 | 80 | 90 | higher acaricidal activity than etoxazole | 35 | 50 | 65 | 35 | 65 | 80 | 
Cc1ccc2c(ccn2Cc2ccc(C3COC(c4c(F)cccc4F)=N3)cc2)c1 (stereo not shown) [Compound R1-16] | 65 | 100 | 100 | 70 | 100 | 100 | 50 | 50 |  |  |  |  |  |  |  | 
Cc1ccc2ccn(Cc3ccc(C4COC(c5c(F)cccc5F)=N4)cc3)c2c1 (stereo not shown) [Compound R1-17] | 40 | 100 | 100 | 65 | 100 | 100 | 20 | 40 |  |  |  |  |  |  |  | 
Cc1cccc2ccn(Cc3ccc(C4COC(c5c(F)cccc5F)=N4)cc3)c12 (stereo not shown) [Compound R1-18] | 100 | 100 | 100 | 100 | 100 | 100 | 85 | 80 | higher acaricidal activity than etoxazole | 45 | 55 | 75 | 30 | 55 | 75 | 5
Cc1cn(Cc2ccc(C3COC(c4ccccc4F)=N3)cc2)c2ccccc12 (stereo not shown) [Compound R1-19] |  |  |  |  |  |  |  |  | higher acaricidal activity than etoxazole |  |  |  |  |  |  | 
Fc1cccc(F)c1C1=NC(c2ccc(Cn3ccc4c(F)cccc43)cc2)CO1 (stereo not shown) [Compound R1-20] | 70 | 100 | 100 | 80 | 100 | 100 | 45 | 60 |  |  |  |  |  |  |  | 
Fc1ccc2ccn(Cc3ccc(C4COC(c5c(F)cccc5F)=N4)cc3)c2c1 (stereo not shown) [Compound R1-21] | 60 | 100 | 100 | 70 | 100 | 100 |  | 30 |  |  |  |  |  |  |  | 
